Key:
COX-1 [1] = molecular target: T1, COX-1 (Homo sapiens, UniProt P23219); assay: Human whole blood assay, COX-1 (clotting-induced TxB2 production); format: cell-based; parameters: platelets in whole blood contain a large amount of the COX-1 enzyme; from tissue; host or cells: fresh human whole blood (platelets), allowed to clot; settings: clotting-induced TxB2, 1 hour at 37° C, read-out: COX-1 (IC50 μM) HWB
Description: Human whole blood provides a protein and cell-rich milieu appropriate for the study of biochemical efficacy of anti-inflammatory compounds such as selective COX-2 inhibitors. […] This is consistent with the observation that COX-2 inhibitors have no effect on PGE2 production in normal blood. These inhibitors are active only after incubation of human whole blood with LPS, which induces COX-2. This assay can be used to evaluate the inhibitory effect of selective COX-2 inhibitors on PGE2 production. As well, platelets in whole blood contain a large amount of the COX-1 enzyme. Immediately following blood clotting, platelets are activated through a thrombin-mediated mechanism. This reaction results in the production of thromboxane B2 (TxB2) via activation of COX-1. Thus, the effect of test compounds on TxB2 levels following blood clotting can be examined and used as an index for COX-1 activity. Therefore, the degree of selectivity by the test compound can be determined by measuring the levels of PGE2 after LPS induction (COX-2) and […] following blood clotting (COX-1) in the same assay.
B. COX-1 (Clotting-induced TxB2 production)
Fresh blood is collected into vacutainers containing no anticoagulants. […] The tubes are vortexed and incubated at 37° C. for 1 hour to allow blood to clot. At the end of incubation, serum is obtained by centrifugation (12,000×g for 5 min.). A 100 μL aliquot of serum is mixed with 400 μL of methanol for protein precipitation. The supernatant is obtained and is assayed for T×B2 using a enzyme immunoassay kit (Cayman, #519031) according to the manufacturer's instruction.

COX-1 [2] = molecular target: T1, COX-1; assay: Assay of COX-1 activity from U937 cell microsomes; format: biochemical; parameters: Assay of COX-1 Activity from U937 cell microsomes; endogenous in cells; host or cells: U937 cells, 100,000×g microsomal pellet; settings: PGE2, read-out: COX-1 (IC50 μM) U-937
Description: Assay of COX-1 Activity from U937 cell microsomes
U 937 cells are pelleted by centrifugation at 500×g for 5 min and washed once with phosphate-buffered saline and repelleted. […] The cell suspension is sonicated 4 times for 10 sec and is centrifuged at 10,000×g for 10 min at 4° C. The supernatant is centrifuged at 100,000×g for 1 hr at 4° C. The 100,000×g microsomal pellet is resuspended in 0.1 M Tris-HCl, pH 7.4, 10 mM EDTA to approximately 7 mg protein/ml and stored at -80° C.
Microsomal preparations are thawed immediately prior to use, subjected to a brief sonication, and then diluted to a protein concentration of 125 μg/ml in 0.1 M Tris-HCl buffer, pH 7.4 containing 10 mM EDTA, 0.5 mM phenol, 1 mM reduced glutathione and 1 μM hematin. Assays are performed in duplicate in a final volume of 250 pl. Initially, 5 µl of DMSO vehicle or drug in DMSO are added to 20 μl of 0.1 M Tris-HCl buffer, pH 7.4 containing 10 mM EDTA in wells of a 96-deepwell polypropylene titre plate. 200 μl of the microsomal preparation are then added and pre-incubated for 15 min at room temperature before addition of 25 μl of […] in 0.1 M Tris-HCl and 10 mM EDTA, pH 7.4. Samples are incubated for 40 min at room temperature and the reaction is stopped by the addition of 25 pl of 1 N HCl. Samples are neutralized with 25 μl of 1 N NaOH prior to quantitation of PGE2 content by radioimmunoassay (Dupont-NEN or Amersham assay kits). Cyclooxygenase activity is defined as the difference between PGE2 levels in samples incubated in the presence of arachidonic acid and ethanol vehicle.
(§1) In the assay, inhibition is determined by measuring the amount of prostaglandin E2 (PGE2) synthesized in the presence of arachidonic acid, cyclooxygenase-I or cyclooxygenase-2 and a putative inhibitor.

COX-2 [3] = molecular target: T2, COX-2 (Homo sapiens, UniProt P35354); assay: Human whole blood assay, COX-2 (LPS-induced PGE2 production); format: cell-based; parameters: incubation of human whole blood with LPS, which induces COX-2; from tissue; host or cells: fresh human whole blood (volunteers), incubated with LPS; settings: LPS-induced PGE2, 24 hours at 37° C, read-out: COX-2 (IC50 μM) HWB
T2 sequence (P35354 18-604): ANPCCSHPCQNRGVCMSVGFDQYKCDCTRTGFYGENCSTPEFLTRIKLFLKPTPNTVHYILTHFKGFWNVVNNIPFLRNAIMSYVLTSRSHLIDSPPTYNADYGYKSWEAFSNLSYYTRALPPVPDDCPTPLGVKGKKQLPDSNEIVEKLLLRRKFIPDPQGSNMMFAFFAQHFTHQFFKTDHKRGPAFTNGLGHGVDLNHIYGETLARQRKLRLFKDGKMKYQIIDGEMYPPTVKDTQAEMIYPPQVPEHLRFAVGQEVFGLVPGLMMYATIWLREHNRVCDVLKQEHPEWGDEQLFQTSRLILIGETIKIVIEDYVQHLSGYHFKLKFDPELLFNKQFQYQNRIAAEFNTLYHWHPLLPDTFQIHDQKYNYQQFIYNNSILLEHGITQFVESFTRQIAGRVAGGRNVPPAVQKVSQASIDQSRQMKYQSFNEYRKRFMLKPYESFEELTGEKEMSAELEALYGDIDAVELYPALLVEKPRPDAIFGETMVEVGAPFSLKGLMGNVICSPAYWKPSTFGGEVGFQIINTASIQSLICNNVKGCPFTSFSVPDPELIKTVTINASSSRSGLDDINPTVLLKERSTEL
Excerpt: As well, platelets in whole blood contain a large amount of the COX-1 enzyme. Immediately following blood clotting, platelets are activated through a thrombin-mediated mechanism. This reaction results in the production of thromboxane B2 (TxB2) via activation of COX-1. Thus, the effect of test compounds on TxB2 levels following blood clotting can be examined and used as an index for COX-1 activity. Therefore, the degree of selectivity by the test compound can be determined by measuring the levels of PGE2 after LPS induction (COX-2) and […] following blood clotting (COX-1) in the same assay.
A. COX-2 (LPS-induced PGE2 production)
Fresh blood is collected in heparinized tubes by venipuncture from both male and female volunteers. The subjects have no apparent inflammatory conditions and have not taken any NSAIDs for at least 7 days prior to blood collection. Plasma is immediately obtained from a 2mL blood aliquot to use as blank (basal levels of PGE2). The remaining blood is incubated with LPS (100 μg/ml final concentration, Sigma Chem, #L-2630 from E. coli; diluted in 0.1% BSA (Phosphate buffered saline) for 5 minutes at room temperature. Five hundred μL aliquots of blood are incubated with either 2μL of vehicle (DMSO) or 2 μL of a test compound at final concentrations varying from 10nM to 30 μM for 24 hours at 37° C. At the end of the incubation, the blood is centrifuged at 12,000×g for 5 minutes to obtain plasma. A 100 μL aliquot of plasma is mixed with 400 μL of methanol for protein precipitation. The supernatant is obtained and is assayed for PGE2 using a radioimmunoassay kit (Amersham, RPA#530) after conversion of PGE2 to its methyl oximate derivative according to the manufacturer's procedure. […]

COX-2 [4] = molecular target: T2, COX-2; assay: Whole cell assay for COX-2 using CHO transfected cell line (CHO [hCOX-2]), PGE2; format: cell-based; parameters: expressed in transfected cells; host or cells: CHO (Chinese hamster ovary), stably transfected with pCDNAIII vector; CHO [hCOX-2]; settings: CHO [hCOX-2] cells, 10 μM AA
Description: Chinese hamster ovary (CHO) cell lines which have been stably transfected with an eukaryotic expression vector pCDNAIII containing either the human COX-1 or COX-2 cDNA's are used for the assay. These cell lines are referred to as CHO [hCOX-1] and CHO [hCOX-2], respectively. […] Drugs to be tested are dissolved in DMSO to 66.7-fold the highest test drug concentration. […] Cells (0.3×10^6 cells in 200 p) are preincubated with 3 AIl of the test drug or DMSO vehicle for 15 min at 37° C. […] Cells are then challenged in the presence or absence of drug with the AA/HBSS solution to yield a final concentration of 0.5 μM AA in the CHOhCOX-1] assay and a final concentration of 10 μM AA in the CHO [hCOX-2] assay. […] The samples are centrifuged at 300×g at 4° C. for 10 min, and an aliquot of the clarified supernatant is appropriately diluted for the determination of PGE2 levels using an enzyme-liked immunoassay for PGE2 (Correlate PGE2 enzyme immunoassay kit, Assay Designs, Inc.). Cyclooxygenase activity in the absence of test compounds is determined as the difference in PGE2 levels of cells challenged with arachidonic acid versus the PGE2 levels in cells mock-challenged with ethanol vehicle. Inhibition of PGE2 synthesis by test compounds is calculated as a percentage of the activity in the presence of drug versus the activity in the positive control samples.
as §1

T1 sequence (P23219 24-599): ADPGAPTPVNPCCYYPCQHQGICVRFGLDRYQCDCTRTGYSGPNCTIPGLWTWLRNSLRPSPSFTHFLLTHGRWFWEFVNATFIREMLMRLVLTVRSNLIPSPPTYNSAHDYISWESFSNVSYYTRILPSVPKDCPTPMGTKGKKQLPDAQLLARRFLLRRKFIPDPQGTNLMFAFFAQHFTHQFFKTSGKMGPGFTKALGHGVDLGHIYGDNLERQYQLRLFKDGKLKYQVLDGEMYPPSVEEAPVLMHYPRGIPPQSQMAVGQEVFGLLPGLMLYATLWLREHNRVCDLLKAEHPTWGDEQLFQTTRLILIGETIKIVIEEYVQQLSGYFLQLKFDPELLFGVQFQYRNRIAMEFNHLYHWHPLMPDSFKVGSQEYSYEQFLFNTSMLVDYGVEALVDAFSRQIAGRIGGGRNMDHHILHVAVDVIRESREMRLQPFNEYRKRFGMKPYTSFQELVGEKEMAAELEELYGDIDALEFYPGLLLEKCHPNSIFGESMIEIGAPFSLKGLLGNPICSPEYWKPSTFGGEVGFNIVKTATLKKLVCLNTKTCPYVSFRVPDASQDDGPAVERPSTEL

Row | IC50 (COX-1 [1]) [µM] | IC50 (COX-1 [2]) [µM] | IC50 (COX-2 [3]) [µM] | IC50 (COX-2 [4]) [µM] | Compound
1 | > 100 |  |  |  | CC(C)Oc1c(-c2ccc(S(C)(=O)=O)cc2)cnn(Cc2ccccc2)c1=O [Example 21, 2-Benzyl-4-(2-propoxy)-5-(4-methylsulfonyl)phenyl-2H-pyridazin-3-one]
2 | 9 | 0.3 to 1 |  |  | CS(=O)(=O)c1ccc(-c2cnn(Cc3ccccc3)c(=O)c2Oc2ccc(F)cc2)cc1 [Example 22, 2-Benzyl-4-(4-fluorophenoxy)-5-(4-methylsulfonyl)phenyl-2H-pyridazin-3-one]
3 |  | ~10 | 0.56 | 0.029 | CS(=O)(=O)c1ccc(-c2cnn(CC3CCC3)c(=O)c2-c2ccc(F)cc2)cc1 [Example 32, 2-Cyclobutylmethyl-4-(4-fluorophenyl)-5-(4-methylsulfonyl)phenyl-2H-pyridazin-3-one]
